The source of these data is ChEMBL document CHEMBL1151167, “New marine sesquiterpenoids and diterpenoids from the Okinawan soft coral Clavularia koellikeri” (2004).

Holding throughout (format): functional
For one experiment, the system named is NCI-H522. Put plainly: Cytotoxicity against human NCI-H522 cells after 48 hrs by SRB assay. To be noted: NCI-H522, 48 h. (In general: In SRB staining, fixed cells bind dye roughly in proportion to their protein.)
The test system of the next experiment is LOX IMVI. Put plainly: Cytotoxicity against human LOXIMVI cells after 48 hrs by SRB assay.
The next experiment concerns MKN-74. Put plainly: Cytotoxicity against human MKN74 cells after 48 hrs by SRB assay. To be noted: MKN-74, 48 h.
The next experiment deals with SF-539. Briefly: Cytotoxicity against human SF539 cells after 48 hrs by SRB assay. The settings on record: SF-539, 48 h.
Another experiment has as its system SNB-75. Briefly: Cytotoxicity against human SNB75 cells after 48 hrs by SRB assay. The settings on record: SNB-75, 48 h.

≈ marks a conversion by molar mass, not a printed value.

The GI50 is the concentration at which growth is held to half of that of the control. Higher therefore signals less potent growth inhibition. Turning to `C/C1=C\CC2=CC[C@@H](C(C)C)[C@]2(C)C[C@@H](O)/C(C)=C/CC1`, the GI50 was 5.2 µg/mL (≈ 18 µM) with NCI-H522; 4.9 µg/mL (≈ 17 µM) in the experiment with LOX IMVI; 5.2 µg/mL (≈ 18 µM) in the experiment with MKN-74; 4.9 µg/mL (≈ 17 µM) in the experiment with SF-539; 4.9 µg/mL (≈ 17 µM) in the experiment with SNB-75.
